From ChEMBL document CHEMBL4000141, “Synthesis and carbonic anhydrase isoenzymes I, II, IX, and XII inhibitory effects of dimethoxybromophenol derivatives incorporating cyclopropane moieties” (J Med Chem, 2015)
pKi: −log10 of the molar value.

Each compound was assayed against Carbonic anhydrase 12 (Homo sapiens, UniProt O43570) (assay: Inhibition of human CA12 by stopped-flow CO2 hydration method).
Chain of Carbonic anhydrase 12 (O43570 whole entry): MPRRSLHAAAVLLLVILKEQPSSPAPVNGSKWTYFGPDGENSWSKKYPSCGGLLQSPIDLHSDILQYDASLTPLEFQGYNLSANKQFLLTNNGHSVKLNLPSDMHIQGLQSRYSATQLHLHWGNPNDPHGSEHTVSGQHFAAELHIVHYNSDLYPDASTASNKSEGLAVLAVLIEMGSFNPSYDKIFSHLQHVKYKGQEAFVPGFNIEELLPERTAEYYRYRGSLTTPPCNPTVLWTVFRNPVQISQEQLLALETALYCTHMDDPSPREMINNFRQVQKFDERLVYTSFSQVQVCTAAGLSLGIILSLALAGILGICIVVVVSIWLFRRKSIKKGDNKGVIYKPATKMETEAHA
For `COc1cc(Br)c(C[C@H]2C[C@H]2C(=O)O)c(Br)c1OC`, the pKi was < 4.30.
`COc1cc(Br)c(C[C@@H]2C[C@H]2C(=O)O)c(Br)c1OC` was tested, and the pKi was < 4.30.
`COc1cc(C[C@H]2C[C@H]2C(=O)O)c(Br)c(Br)c1OC` was tested, and the pKi was < 4.30.
In the case of `COc1cc(C[C@@H]2C[C@H]2C(=O)O)c(Br)c(Br)c1OC`, the pKi was < 4.30.

The compounds below were run against Carbonic anhydrase 9 (Homo sapiens, UniProt Q16790).
Description: Inhibition of human CA9 by stopped-flow CO2 hydration method
In the case of `COc1c(Br)c(Br)c(C[C@@H]2C[C@H]2C(=O)O)c(Br)c1OC`, the pKi was < 4.30.
Work on `CCOC(=O)[C@@H]1C[C@H]1Cc1c(Br)c(Br)c(OC)c(OC)c1Br` yielded a pKi of 5.11.
`COc1cc(Br)c(C[C@H]2C[C@H]2C(=O)O)c(Br)c1OC` was tested, and the pKi was < 4.30.
`COc1ccc(C[C@@H]2C[C@@H]2C(=O)O)cc1OC` gave a pKi of 5.06.
Compound `CCOC(=O)[C@@H]1C[C@@H]1Cc1cc(OC)c(OC)cc1Br` has a pKi of 6.00.
In the case of `COc1cc(Br)c(C[C@@H]2C[C@H]2C(=O)O)c(Br)c1OC`, the pKi was < 4.30.
Work on `CCOC(=O)[C@@H]1C[C@H]1Cc1c(Br)cc(OC)c(OC)c1Br` yielded a pKi of 5.01.
`COc1cc(Br)c(C[C@@H]2C[C@H]2C(=O)O)cc1OC` showed a pKi of 5.01.
Compound `CCOC(=O)[C@@H]1C[C@H]1Cc1cc(OC)c(OC)c(Br)c1Br` has a pKi of 5.05.
For `COc1c(Br)c(Br)c(C[C@H]2C[C@H]2C(=O)O)c(Br)c1OC`, the pKi was 4.98.
`COc1ccc(C[C@H]2C[C@H]2CO)cc1OC` showed a pKi of 5.31.
In the case of `COc1cc(C[C@H]2C[C@H]2C(=O)O)c(Br)c(Br)c1OC`, the pKi was < 4.30.
`COc1cc(Br)c(C[C@H]2C[C@H]2C(=O)O)cc1OC` was tested, and the pKi was < 4.30.
For `COc1ccc(C[C@@H]2C[C@H]2C(=O)O)cc1OC`, the pKi was 5.96.
`COc1ccc(C[C@@H]2C[C@H]2CO)cc1OC` showed a pKi of 5.06.
With `CCOC(=O)[C@@H]1C[C@@H]1Cc1c(Br)c(Br)c(OC)c(OC)c1Br` the pKi was < 4.30.
In the case of `CCOC(=O)[C@@H]1C[C@@H]1Cc1cc(OC)c(OC)c(Br)c1Br`, the pKi was < 4.30.
For `CCOC(=O)[C@@H]1C[C@H]1Cc1cc(OC)c(OC)cc1Br`, the pKi was 5.14.
Work on `CCOC(=O)[C@@H]1C[C@@H]1Cc1c(Br)cc(OC)c(OC)c1Br` yielded a pKi of 5.05.
Work on `CCOC(=O)[C@@H]1C[C@H]1Cc1ccc(OC)c(OC)c1` yielded a pKi of 5.04.
Compound `CCOC(=O)[C@@H]1C[C@@H]1Cc1ccc(OC)c(OC)c1` has a pKi of 5.18.
`COc1cc(C[C@@H]2C[C@H]2C(=O)O)c(Br)c(Br)c1OC` was tested, and the pKi was < 4.30.
